Test results: ChEMBL document CHEMBL1201862, “PubChem BioAssay data set” (2004)
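Results reflect a 48-hour exposure of cells in 96-well plates to compound at five concentrations. GI50 = concentration required for 50% inhibition of growth.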 Activity calls are given as the source filed them. No stated cut-off is given here; in the data, active = GI50 up to about 1.1 µM and inactive = higher.

How the values were obtained:
Experiment in all cases: NCI tumour cell line growth inhibition, 48 h
[1] = tested on: DMS-114
[2] = tested on: HCC 2998
[3] = tested on: SN12C
[4] = tested on: A498
[5] = tested on: DLD-1
[6] = tested on: SF-295
[7] = tested on: CCRF-CEM
[8] = tested on: NCI-H460
[9] = tested on: SK-MEL-2
[10] = tested on: LOX IMVI
[11] = tested on: NCI-H226
[12] = tested on: HT-29
[13] = tested on: ACHN
[14] = tested on: K562
[15] = tested on: OVCAR-8
[16] = tested on: RXF 631
[17] = tested on: UO-31
[18] = tested on: IGROV-1
[19] = tested on: Malme-3M
[20] = tested on: SK-OV-3
[21] = tested on: A549
[22] = tested on: HCT-116
[23] = tested on: RPMI-8226
[24] = tested on: U-251
[25] = tested on: OVCAR-5
[26] = tested on: SNB-19
[27] = tested on: SW-620
[28] = tested on: HOP-18
[29] = tested on: SF-268
[30] = tested on: NCI-H522
[31] = tested on: OVCAR-4
[32] = tested on: HOP-62
[33] = tested on: SK-MEL-5
[34] = tested on: RXF 393
[35] = tested on: UACC-62
[36] = tested on: COLO 205
[37] = tested on: SR
[38] = tested on: MOLT-4
[39] = tested on: 786-0
[40] = tested on: CAKI-1
[41] = tested on: HL-60
[42] = tested on: HCT-15
[43] = tested on: M14
[44] = tested on: SNB-75
[45] = tested on: TK-10
[46] = tested on: HOP-92
[47] = tested on: SF-539
[48] = tested on: DMS-273
[49] = tested on: M19-MEL
[50] = tested on: KM-20L2
[51] = tested on: LXFL 529
[52] = tested on: SNB-78
[53] = tested on: KM12
[54] = tested on: UACC-257
[55] = tested on: EKVX
[56] = tested on: NCI-H23
[57] = tested on: SK-MEL-28
[58] = tested on: OVCAR-3
[59] = tested on: XF498

## COc1cc2noc(-c3ccccc3)c2cc1OC
[1]
  GI50: 35.9 µM (inactive)
[2]
  GI50: 58.1 µM (inactive)
[3]
  GI50: 34.8 µM (inactive)
[4]
  GI50: 20.2 µM (inactive)
[5]
  GI50: 64 µM (inactive)
[6]
  GI50: 19 µM (inactive)
[7]
  GI50: 42.5 µM (inactive)
[8]
  GI50: 42.4 µM (inactive)
[9]
  GI50: 75.9 µM (inactive)
[10]
  GI50: 40.6 µM (inactive)
[11]
  GI50: > 100 µM (inactive)
[12]
  GI50: 36.6 µM (inactive)
[13]
  GI50: 87.1 µM (inactive)
[14]
  GI50: 50.6 µM (inactive)
[15]
  GI50: 64.4 µM (inactive)
[16]
  GI50: 20.4 µM (inactive)
[17]
  GI50: 34.8 µM (inactive)
[18]
  GI50: > 100 µM (inactive)
[19]
  GI50: > 100 µM (inactive)
[20]
  GI50: 63 µM (inactive)
[21]
  GI50: 54.3 µM (inactive)
[22]
  GI50: 60.1 µM (inactive)
[23]
  GI50: 18.7 µM (inactive)
[24]
  GI50: 26.7 µM (inactive)
[25]
  GI50: 29.2 µM (inactive)
[26]
  GI50: 54 µM (inactive)
[27]
  GI50: 57.3 µM (inactive)
[28]
  GI50: > 100 µM (inactive)
[29]
  GI50: 54 µM (inactive)
[30]
  GI50: 36.4 µM (inactive)
[31]
  GI50: > 100 µM (inactive)
[32]
  GI50: 22.4 µM (inactive)
[33]
  GI50: 46.7 µM (inactive)
[34]
  GI50: 23.8 µM (inactive)
[35]
  GI50: 74.3 µM (inactive)
[36]
  GI50: 55.3 µM (inactive)
[37]
  GI50: 37 µM (inactive)
[38]
  GI50: 26.4 µM (inactive)
[39]
  GI50: 29.2 µM (inactive)
[40]
  GI50: 27.4 µM (inactive)
[41]
  GI50: 40.1 µM (inactive)
[42]
  GI50: 38.7 µM
[43]
  GI50: 55.6 µM (inactive)
[44]
  GI50: 4.59 µM (inactive)
[45]
  GI50: 80.9 µM (inactive)
[46]
  GI50: 44.1 µM (inactive)
[47]
  GI50: 10.6 µM (inactive)
[48]
  GI50: 39.6 µM (inactive)
[49]
  GI50: 89.5 µM (inactive)
[50]
  GI50: 37.4 µM (inactive)
[51]
  GI50: 68.4 µM (inactive)
[52]
  GI50: 73.5 µM (inactive)
[53]
  GI50: 29 µM (inactive)
[54]
  GI50: > 100 µM (inactive)

## CCOc1ccc(NC(=O)CC2SC(Nc3ccc(Cl)cc3)=NC2=O)cc1 (stereo not given)
[1]
  GI50: > 100 µM (inactive)
[2]
  GI50: > 100 µM (inactive)
[3]
  GI50: > 100 µM (inactive)
[4]
  GI50: 44.8 µM (inactive)
[5]
  GI50: 36 µM (inactive)
[6]
  GI50: > 100 µM (inactive)
[7]
  GI50: 18.3 µM (inactive)
[55]
  GI50: > 100 µM (inactive)
[8]
  GI50: > 100 µM (inactive)
[56]
  GI50: > 100 µM (inactive)
[9]
  GI50: > 100 µM (inactive)
[10]
  GI50: > 100 µM (inactive)
[11]
  GI50: > 100 µM (inactive)
[12]
  GI50: > 100 µM (inactive)
[13]
  GI50: > 100 µM (inactive)
[57]
  GI50: > 100 µM (inactive)
[14]
  GI50: 23.9 µM (inactive)
[15]
  GI50: 49.7 µM (inactive)
[16]
  GI50: > 100 µM (inactive)
[17]
  GI50: > 100 µM (inactive)
[18]
  GI50: > 100 µM (inactive)
[19]
  GI50: > 100 µM (inactive)
[20]
  GI50: > 100 µM (inactive)
[21]
  GI50: > 100 µM (inactive)
[23]
  GI50: 58.6 µM (inactive)
[58]
  GI50: > 100 µM (inactive)
[25]
  GI50: > 100 µM (inactive)
[26]
  GI50: > 100 µM (inactive)
[27]
  GI50: 98.9 µM (inactive)
[28]
  GI50: > 100 µM (inactive)
[29]
  GI50: > 100 µM (inactive)
[30]
  GI50: > 10 µM (inactive)
[59]
  GI50: > 100 µM (inactive)
[31]
  GI50: > 100 µM (inactive)
[32]
  GI50: > 100 µM (inactive)
[33]
  GI50: > 100 µM (inactive)
[34]
  GI50: 40.8 µM (inactive)
[35]
  GI50: > 100 µM (inactive)
[36]
  GI50: > 100 µM (inactive)
[38]
  GI50: 29.4 µM (inactive)
[39]
  GI50: > 100 µM (inactive)
[40]
  GI50: 21.5 µM (inactive)
[41]
  GI50: 24.2 µM (inactive)
[42]
  GI50: 95.3 µM
[43]
  GI50: > 100 µM (inactive)
[44]
  GI50: 29.8 µM (inactive)
[45]
  GI50: > 100 µM (inactive)
[47]
  GI50: > 100 µM (inactive)
[48]
  GI50: > 100 µM (inactive)
[49]
  GI50: > 100 µM (inactive)
[50]
  GI50: > 100 µM (inactive)
[51]
  GI50: 41.8 µM (inactive)
[53]
  GI50: > 100 µM (inactive)
[54]
  GI50: > 100 µM (inactive)

## CN1CCc2ccccc2C(C(=O)c2ccc3c(c2)OCO3)C1=O (stereo not given)
[1]
  GI50: 39.3 µM (inactive)
[3]
  GI50: > 100 µM (inactive)
[4]
  GI50: > 100 µM (inactive)
[5]
  GI50: > 100 µM (inactive)
[7]
  GI50: > 100 µM (inactive)
[8]
  GI50: > 100 µM (inactive)
[56]
  GI50: 96.2 µM (inactive)
[9]
  GI50: > 100 µM (inactive)
[10]
  GI50: > 100 µM (inactive)
[11]
  GI50: 99.5 µM (inactive)
[12]
  GI50: > 100 µM (inactive)
[13]
  GI50: > 100 µM (inactive)
[57]
  GI50: > 100 µM (inactive)
[14]
  GI50: > 100 µM (inactive)
[15]
  GI50: > 100 µM (inactive)
[16]
  GI50: > 100 µM (inactive)
[17]
  GI50: 94 µM (inactive)
[18]
  GI50: > 100 µM (inactive)
[19]
  GI50: > 100 µM (inactive)
[20]
  GI50: > 100 µM (inactive)
[21]
  GI50: > 100 µM (inactive)
[22]
  GI50: > 100 µM (inactive)
[23]
  GI50: > 100 µM (inactive)
[58]
  GI50: > 100 µM (inactive)
[24]
  GI50: > 100 µM (inactive)
[26]
  GI50: > 100 µM (inactive)
[27]
  GI50: > 100 µM (inactive)
[28]
  GI50: > 100 µM (inactive)
[29]
  GI50: > 100 µM (inactive)
[30]
  GI50: > 100 µM (inactive)
[59]
  GI50: 70.8 µM (inactive)
[31]
  GI50: 89.3 µM (inactive)
[32]
  GI50: > 100 µM (inactive)
[33]
  GI50: 53.3 µM (inactive)
[34]
  GI50: > 100 µM (inactive)
[35]
  GI50: > 100 µM (inactive)
[36]
  GI50: > 100 µM (inactive)
[38]
  GI50: > 100 µM (inactive)
[39]
  GI50: > 100 µM (inactive)
[40]
  GI50: > 100 µM (inactive)
[41]
  GI50: > 100 µM (inactive)
[42]
  GI50: > 100 µM
[43]
  GI50: > 100 µM (inactive)
[44]
  GI50: > 100 µM (inactive)
[45]
  GI50: > 100 µM (inactive)
[46]
  GI50: > 100 µM (inactive)
[48]
  GI50: > 100 µM (inactive)
[49]
  GI50: > 100 µM (inactive)
[50]
  GI50: > 100 µM (inactive)
[51]
  GI50: > 100 µM (inactive)
[53]
  GI50: > 100 µM (inactive)
[54]
  GI50: 90.2 µM (inactive)
